Data on 17 molecules can be found in patent US9157062B2, “Compositions and methods for promoting the generation of PDX1+ pancreatic cells” (President and Fellows of Harvard College, priority 2008, dated 2015).

Counter-ions that a name gives are not always drawn. Like-named read-outs stand apart in the source and are kept apart here.

The subject of experiment [1] is HUES8-derived population (Pdx1+ cells). The experiment in a line: Pdx1 antibody staining of treated HUES8-derived population. Type of experiment: cell-based, human. The following applies: for percentage of Pdx1+ cells, PKC agonists in the absence of ILV: HUES8-derived definitive endoderm population, 500 nM TPB or 14 nM PMA; for percentage of Pdx1+ cells, PKC antagonists in the presence of ILV: 300 nM ILV plus 1 μM BISI or 10 μM Gö 6983, 4 days. Here is the method: (§1) To generate a starting population, HUES cells were cultured on MEF feeder cells until 80-90% confluent, then treated with 25 ng/ml Wnt3a (R&D systems)+100 ng/ml Activin A (R&D systems) in advanced RPMI (A-RPMI, Invitrogen) supplemented with 1×L-Glu and 1×PS for 1 day, and then 100 ng/ml Activin A in A-RPMI supplemented with 1×L-Glu, 1×PS and 0.2% FBS (Invitrogen). Two days later, the media was changed to 50 ng/ml FGF10 (R&D systems)+0.25 μM KAAD-CYC (Calbiochem) in A-RPMI supplemented with 1×L-Glu, 1×PS and 2% FBS and maintained for additional 2 days. Cells were then transferred to 50 ng/ml FGF10+0.25 μM KAAD-CYC+2 μM RA (Sigma) in DMEM supplemented with 1×L-Glu, 1×PS, 1×B27 (Invitrogen) and cultured for an additional 4 days. ILV was obtained from Axxora, KAAD-CYC, TPB, PMA, BISI, Gö 6983, U0126 and PD98059 were obtained from Calbiochem and RA were obtained from Sigma.
(§2) Cells were fixed with 10% formalin solution (Sigma) for 20 min at room temperature. Immunostaining was carried out with standard protocols. The following primary antibodies were used: goat anti-Pdx1 (1:500; R&D system); rabbit anti-FOXA2 (1:500; Upstate); rabbit anti-HNF6 (1:200; Santa Cruz Biotech); guinea pig anti-insulin (1:1000; Dako); rabbit anti-c-peptide (1:500; Linco); rabbit anti-amylase (1:200, Sigma); goat anti-HNF1β (1:100, Santa Cruz Biotech); and biotinylated DBA (1:400; Vector Lab). Alexa-488-, Alexa-555, and Alexa-647-conjugated donkey antibodies against mouse, rabbit, guinea pig and goat, and Pacific Blue conjugate-streptavidin (Invitrogen) were used at 1:300 dilution.
To determine whether PKC signaling is being activated in HUES-derived cells, HUES8-derived definitive endoderm population was treated with two PKC agonists, TPB ((2S,5S)-(E,E)-8-(5-(4-(trifluoromethyl)phenyl)-2,4-pentadienoylamino)benzolactam) and PMA (phorbol-12-myristate-13-acetate), in the absence of ILV. […] Furthermore, HUES8-derived population was treated with two PKC antagonists, BISI (Bisindolylmaleimide I) and Gö 6983, in the presence of ILV.
Experiments were performed to monitor downstream signaling by PKC. Since ERK signaling has been reported to be regulated by PKC (Ueda et al., 1996), the activity of ERK signaling was examined with Western blotting to detect the phosphorylation of ERK1/2 at Thr-202/Tyr-204.

In experiment [2] the test system is HUES9-derived population (Pdx1+ cells). The experiment in a line: High throughput screen for compounds increasing Pdx1+ cells. Type of experiment: cell-based, human. The following applies: HUES9-derived cells, 10 μM, 1 μM and 0.1 μM, four days. Here is the method: as §1
For a high throughput screen, the starting material was hESCs (HUES9 cells) that were induced to pancreatic lineage using a slightly modified version of previously published protocols (D'Amour et al., 2006; Jiang et al., 2007), as described in Example 1. After 9 days of stepwise differentiation, a heterogeneous population of cells was generated containing cells that stained strongly, weakly or not at all with a Pdx1 antibody. Any cell that stained with the Pdx1 staining antibody was counted as Pdx1^+ cells regardless of staining intensity. Together, the Pdx1^+ cells comprises 5.1±1.8% of the total cell number.
To carry out the screen, the cells were trypsinized and plated on 804G-coated 384-well plates at 6000 cells/well using chemically defined media (DMEM supplemented with 2 mM L-Glu, 1×PS, 1×B27). After overnight incubation, compounds were screened by adding them to provide a final concentration of 10 μM, 1 μM and 0.1 μM. Four days later, the cells were stained with Pdx1 antibody and the plates were analyzed with Opera high content screening system (PerkinElmer).
The wells in which the percentage of Pdx1^+ cells is higher than present at day 1 and higher than day 5 treated with DMSO were selected as primary hits. Compounds that increase both the number and percentage of Pdx1^+ cells were picked as primary hits. Eleven compounds produced hits. (FIG. 7, Table I in FIG. 9 and formulas in FIG. 10). These eleven compounds were (−)-Indolactam V (FIG. 1c and Compound I in Table 1) boldine (Compound II), rotenone (Compound III), ethopropazine hydrochloride (Compound IV), cedrelone (Compound V), prieurianin (Compound VI), strophanthidin (Compound VII), trimeprazine tartrate (Compound VIII), terconazole (Compound IX), dimethisoquin hydrochloride (Compound X), harmine hydrochloride (Compound XI).
as §2

A further experiment addresses T1, PKCμ (Homo sapiens, UniProt Q15139).
T1 sequence (Q15139 1-912): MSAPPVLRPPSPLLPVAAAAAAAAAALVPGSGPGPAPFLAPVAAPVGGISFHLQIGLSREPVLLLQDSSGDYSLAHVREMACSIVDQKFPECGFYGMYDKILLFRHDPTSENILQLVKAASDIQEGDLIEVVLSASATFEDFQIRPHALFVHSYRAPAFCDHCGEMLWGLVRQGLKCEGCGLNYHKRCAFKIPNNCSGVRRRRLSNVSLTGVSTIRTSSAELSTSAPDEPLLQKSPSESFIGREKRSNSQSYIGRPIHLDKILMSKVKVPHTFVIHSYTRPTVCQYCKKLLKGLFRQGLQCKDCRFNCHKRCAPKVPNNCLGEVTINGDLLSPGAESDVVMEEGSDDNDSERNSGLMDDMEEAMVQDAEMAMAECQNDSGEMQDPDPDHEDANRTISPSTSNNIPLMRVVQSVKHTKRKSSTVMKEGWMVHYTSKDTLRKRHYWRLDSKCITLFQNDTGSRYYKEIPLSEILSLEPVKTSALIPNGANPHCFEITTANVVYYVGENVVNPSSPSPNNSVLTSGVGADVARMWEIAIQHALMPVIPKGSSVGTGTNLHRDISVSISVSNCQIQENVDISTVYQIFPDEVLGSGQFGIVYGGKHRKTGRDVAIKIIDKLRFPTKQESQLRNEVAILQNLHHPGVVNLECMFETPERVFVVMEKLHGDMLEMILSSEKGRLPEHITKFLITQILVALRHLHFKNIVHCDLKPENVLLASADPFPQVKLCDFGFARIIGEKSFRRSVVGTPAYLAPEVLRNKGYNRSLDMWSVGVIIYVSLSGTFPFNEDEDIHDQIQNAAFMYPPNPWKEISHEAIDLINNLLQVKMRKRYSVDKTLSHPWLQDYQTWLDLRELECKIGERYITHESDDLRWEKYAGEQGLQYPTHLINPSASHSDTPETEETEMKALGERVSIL
The following applies: Gschwendt et al., 1996; cited from earlier work.

On to `CC(C)[C@H]1C(=O)N[C@H](CO)Cc2cc(NC(=O)/C=C/C=C/c3ccc(C(F)(F)F)cc3)ccc2N1C` [TPB, (2S,5S)-(E,E)-8-(5-(4-(trifluoromethyl)phenyl)-2,4-pentadienoylamino)benzolactam], for which the “percentage of Pdx1+ cells, PKC agonists in the absence of ILV” value in experiment [1] (4 days) was found to be 15.4±2.9%. For `COc1ccc2c(c1)[nH]c1c(C)nccc12.Cl` [Compound XI, harmine hydrochloride], the “primary hits (increase both the number and percentage of Pdx1+ cells)” value in experiment [2] was “hits”. Take `N#CC(=C(/N)Sc1ccccc1N)/C(C#N)=C(\N)Sc1ccccc1N` [Compound U0126]: the “percentage of Pdx1+ cells, MEK/ERK inhibitors together with ILV” value in experiment [1] amounted to 0.3±0.2%.

Take `COc1cc2c(cc1O)C[C@H]1c3c(cc(O)c(OC)c3-2)CCN1C` [Compound II, boldine]: the “primary hits (increase both the number and percentage of Pdx1+ cells)” value in experiment [2] was “hits”. In the case of `COc1cccc(-c2cc(=O)c3ccccc3o2)c1N` [PD098059], the “percentage of Pdx1+ cells, MEK/ERK inhibitors together with ILV” value in experiment [1] (300 nM ILV plus 50 μM PD098059 or 10 μM U0126, 4 days) amounted to 0.4±0.2%. In the case of `CCN(CC)C(C)CN1c2ccccc2Sc2ccccc21` (stereo not drawn) [Compound IV, ethopropazine hydrochloride], the “primary hits (increase both the number and percentage of Pdx1+ cells)” value in experiment [2] is on record as “hits”. Consider `CC1(C)C(=O)C=C[C@@]2(C)C1=C(O)C(=O)[C@]1(C)[C@@H]2CC[C@@]2(C)[C@H](c3ccoc3)C[C@H]3O[C@]321` [Compound V, cedrelone], for which the “primary hits (increase both the number and percentage of Pdx1+ cells)” value in experiment [2] is listed as “hits”. Same read-out and setting: as for trimeprazine tartrate [Compound VIII], the entry is “hits”.

With `CCCCCCCCCCCCCC(=O)O[C@@H]1[C@@H](C)[C@@]2(O)[C@@H](C=C(CO)C[C@]3(O)C(=O)C(C)=C[C@@H]23)[C@@H]2C(C)(C)[C@]12OC(C)=O` [PMA, phorbol-12-myristate-13-acetate], the “percentage of Pdx1+ cells, PKC agonists in the absence of ILV” value in experiment [1] (4 days) was determined as 21.3±4.0%. Regarding `CCCCc1cc2ccccc2c(OCCN(C)C)n1` [Compound X, dimethisoquin hydrochloride], the “primary hits (increase both the number and percentage of Pdx1+ cells)” value in experiment [2] is recorded as “hits”.

For the molecule `C[C@]12CC[C@H]3[C@@H](CC[C@]4(O)C[C@@H](O)CC[C@]34C=O)[C@@]1(O)CC[C@@H]2C1=CC(=O)OC1` [Compound VII, strophanthidin], the “primary hits (increase both the number and percentage of Pdx1+ cells)” value in experiment [2] was “hits”. On to `COc1ccc2c(c1)c(C1=C(c3c[nH]c4ccccc34)C(=O)NC1=O)cn2CCCN(C)C` [Gö 6983], for which the “suppression of PKCμ kinase activity” value on PKCμ is listed as “not effective”. For the same molecule, the “percentage of Pdx1+ cells, PKC antagonists in the presence of ILV” value in experiment [1] (HUES8-derived population) came to 0.8±0.2%. On to `C=C(C)[C@H]1Cc2c(ccc3c2O[C@@H]2COc4cc(OC)c(OC)cc4[C@@H]2C3=O)O1` [Compound III, rotenone], for which, in experiment [2], the “primary hits (increase both the number and percentage of Pdx1+ cells)” value was “hits”. As to `C=C1[C@@H]([C@@]2(C)[C@@H](OC(C)=O)CC(=O)O[C@](C)(COC(C)=O)[C@@H]2C(=O)OC)[C@@H](OC=O)[C@H](OC(=O)[C@H](O)[C@H](C)CC)[C@@]2(C)[C@H](c3ccoc3)CC(=O)[C@]12O` [Compound VI, prieurianin], the “primary hits (increase both the number and percentage of Pdx1+ cells)” value in experiment [2] was “hits”.

With `CN(C)CCCn1cc(C2=C(c3c[nH]c4ccccc34)C(=O)NC2=O)c2ccccc21` [BISI, Bisindolylmaleimide I], the “percentage of Pdx1+ cells, PKC antagonists in the presence of ILV” value in experiment [1] (HUES8-derived population) amounted to 0.6±0.1%. Take `CC(C)N1CCN(c2ccc(OCC3COC(Cn4cncn4)(c4ccc(Cl)cc4Cl)O3)cc2)CC1` (stereo not drawn) [Compound IX, terconazole]: the “primary hits (increase both the number and percentage of Pdx1+ cells)” value in experiment [2] is listed as “hits”.

B1: FGF10: mitogen (fibroblast growth factor) reported to be involved in pancreatic development, from R&D systems (protein, UniProt O15520 38-208, looked up)
Fibroblast growth factor 10: QALGQDMVSPEATNSSSSSFSSPSSAGRHVRSYNHLQGDVRWRKLFSFTKYFLKIEKNGKVSGTKKENCPYSILEITSVEIGVVAVKAINSNYYLAMNKKGKLYGSKEFNNDCKLKERIEENGYNTYASFNWQHNGRQMYVALNGKGAPRRGQKTRRKNTSAHFLPMVVHS
For B1, in experiment [1] (HUES8-derived population, 4 days, 300 nM ILV and/or 50 ng/ml FGF10), the “percentage of cells stained by Pdx1 antibody” value was found to be 5.7±2.3%.
